Experimental data taken from patent US5912232A, “Anti-inflammatory polypeptide antagonists of human I1-8” (Board of Regents of the University of Nebraska, priority 1996, dated 1999).
Where no end group is shown, it is not given here.

Legend:
IL-8 = assay: activity of IL-8 analog compared to analog 1 (test not specified); design: species or system human; settings: C-terminally truncated (residues 6 to 16)
Procedure: The biological activity of an analog of the invention is determined by blocking with the analog an activity with naturally occurring IL-8.

[1] = system: arachidonic acid induced ear inflammation; assay: arachidonic acid induced ear inflammation in mice (ear thickness/edema); type: in vivo, C57BL/6 female mice; settings: ip 1 hour prior to arachidonic acid; ear thickness 1 hour post challenge; FIGS. 1 and 2
Procedure: A stock solution of 5 mgml of example 1 was prepared in D-PBS. The Analog 1 consists of 88.1% active peptide and the calculations were adjusted to compensate for the activity of the Analog 1. Serial dilutions were then made resulting in solutions of appropriate doses of Analog 1 in 0.2 ml. The animals were injected ip with 0.2 ml of the appropriate solution 1 hour prior to arachidonic acid application. The study consisted of various dosage groups as well as excipient groups. The animals used for the study were C57BL/6 female mice, which were obtained from Jackson Laboratories (age 8 weeks and weight 15-18 g). The mice were housed in conventional cages, fed pelleted food and given water ad libitum. The arachidonic acid (Sigma Lot #42H7817) was dissolved in methyl alcohol resulting in a final concentration of 2 mg/20 μl. […] One hour post challenge, the test and control ears were measured for thickness using a Mitutoyo No. 7300 gauge caliper. The thickness was recorded in units of 0.001 inches. […] The effect of Analog 1, which is on IL-8 low molecular weight peptide analog residue 6-19 on arachidonic acid induced ear inflammation was evaluated in vivo, according to the methods described in Example II. In this model, the application of arachidonic acid to the pinna of mice induces an immediate PMN-associated erythema and edema which may be measured by change in thickness. […]

neutrophils (PMNs) = assay: IL-8 induced Ca release in Fluo-3 loaded neutrophils, flow cytometry; type: cell-based, human; settings: PMNs pre-incubated with analog at 10^-6 M; IL-8 10^-6 M; FIG. 6
Procedure: Polymorphonuclear leukocytes (≥95% neutrophils, PMNs) were isolated from heparinized (10 μ/ml) blood collected from healthy volunteers. Erythrocytes were removed by 6% dextran sedimentation for 30 minutes at room temperature, and then the supernatant was subjected to Ficoll (Ficoll-Papque, Pharmacia LKB, Uppsala, Sweden) density gradient centrifugation. PMNs were obtained from the pellet. Contaminated erythrocytes were eliminated by one cycle of hypotonic lysis. After an additional washing step the cells were counted and adjusted to a final concentration of 5×10^6 /ml in RPMI 1640 (Gibco, Grand Island, N.Y.).
The loading procedure with Fluo-3 (Molecular Probes, Eugene, Oreg.) was carried out with PMNs suspended at a density of 5×10^6 /ml in fresh RPMI 1640 containing 2.0 μM Fluo-3 AM (prediluted in dimethyl sulfoxide; Sigma Chemicals) in polypropylene tubes (Falcon 2063, Becton Dickinson). We incubated the PMNs for 25 minutes at 37 degrees C in a 5% CO2 incubator. […]
Before addition of the stimuli the fluorescence channel of the FACScan Plus (Becton Dickinson) was adjusted to find the basal fluorescence level of loaded but unstimulated PMNs. The samples were excited by an argon laser at 488 nm and emission was measured at 525 nm (green fluorescence, channel FL1). […] The fluorescence of Fluo-3-loaded cells was measured in arbitrary fluorescence units of mean channel fluorescence (channel FL1). […]

Sequence	activity compared to analog 1 (IL-8)	EC-50 for blocking edema [1] [μg/animal]	block of Ca signal transduction induced by IL-8 (neutrophils (PMNs))
RCQCLQTLQGIHPK (cysteine pairing not given here) [Analog 2, Derived from Alpha Chemokine GRO (MGSA); b140 describes it as IL-8 residues 6 to 16]	slight loss of activity	–	–
RCQCIKTYSKPFHPK (cysteine pairing not given here) [Analog 1]	–	~1	blocked the Ca signal transduction
